Source: patent publication US7816330B2, “Substituted benzimidazole-, benztriazole-, and benzimidazolone-O-glucosides” (Janssen Pharmaceutica NV, priority 2003, dated 2010)

How the values were obtained:
[1] = target: T1, human SGLT1 (Homo sapiens, UniProt P13866); assay: Cell-based assay for sodium-dependent glucose transport (14C-AMG uptake), CHOK-SGLT1; conditions: CHO-K1 cells stably expressing human SGLT1, Na-dependent 14C-AMG uptake; for inhibition at 10 µM: read-out: CHOK-SGLT1 % Inh. @10 μM
T1 construct: expressed in transfected cells; pcDNA vector)
T1 sequence (P13866 1-664): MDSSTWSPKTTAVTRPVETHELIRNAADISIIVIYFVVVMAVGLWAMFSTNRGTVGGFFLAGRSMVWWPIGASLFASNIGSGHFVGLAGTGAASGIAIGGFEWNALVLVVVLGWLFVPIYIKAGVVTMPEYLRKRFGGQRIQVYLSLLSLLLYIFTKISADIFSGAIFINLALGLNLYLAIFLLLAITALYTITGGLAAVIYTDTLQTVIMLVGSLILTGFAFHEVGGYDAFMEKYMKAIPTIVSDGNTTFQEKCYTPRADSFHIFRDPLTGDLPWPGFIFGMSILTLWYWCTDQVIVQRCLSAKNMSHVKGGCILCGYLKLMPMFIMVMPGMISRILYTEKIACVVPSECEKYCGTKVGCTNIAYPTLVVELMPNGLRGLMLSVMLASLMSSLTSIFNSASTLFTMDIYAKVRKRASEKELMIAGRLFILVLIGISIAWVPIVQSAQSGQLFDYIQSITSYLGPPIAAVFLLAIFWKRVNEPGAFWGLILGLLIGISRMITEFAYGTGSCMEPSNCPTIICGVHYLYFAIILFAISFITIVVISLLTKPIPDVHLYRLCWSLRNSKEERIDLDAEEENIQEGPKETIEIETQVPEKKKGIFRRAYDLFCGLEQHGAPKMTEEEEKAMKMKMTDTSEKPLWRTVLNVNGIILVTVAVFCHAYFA
Method: (§1) Cloning of the human SGLT1 and human SGLT2 cDNAs and construction of the mammalian expression vector: The human SGLT1 cDNA (Genbank M24847) was cloned from human small intestine. Human SGLT2 cDNA (Genbank M95549) was cloned from human kidney. Both full cDNAs were subcloned into pcDNA and sequenced to verify the integrity of the construct.
(§2) Generation of CHO-K1 cells stably expressing human SGLT1 or human SGLT2: Transfection of CHO-K1 cells was performed using DMRIE-C reagent (Life Technologies, Gaithersburg, Md.). Transfectants were then selected in the presence of the antibiotic G418 (Gibco-BRL, Grand Island, N.Y.) at 400 μg/ml. Individual clones were then characterized using the functional assay described below.
(§3) Cell-based assay for sodium-dependent glucose transport: Cell lines stably expressing human SGLT1 or SGLT2 were then used for functional analysis of Na+-dependent glucose uptake. Briefly, cells were plated at a density of 65,000 cells per well in a 96-well plate and allowed to grow for 48 hours. Cells were subsequently washed one time with Assay Buffer (50 mM HEPES pH 7.4, 20 mM Tris, 5 mM KCl, 1 mM MgCl2, 1 mM CaCl2 and 137 mM NaCl) and treated with compound in the absence or presence of NaCl for 15 minutes. Cells were then labeled with ^14C-α-methylglucopyranoside (AMG, Sigma, St. Louis, Mo.), a non-metabolizable glucose analog specific for sodium-dependent glucose transporters as previously described (Peng, H. and Lever J. E. Post-transcriptional regulation of Na^+/glucose cotransporter (SGLT1) gene expression in LLC-PK1 cells. J Biol Chem 1995; 270:20536-20542.). After 2 hours the labelled cells were washed three times with ice-cold PBS. After aspiration, cells were solubilized using Microscint 20 (Packard, Meriden, Conn.) and Na-dependent ^14C-AMG uptake was quantified by measuring radioactivity. Plates were counted in a TopCount (Packard, Meriden, Conn.). Results are reported as the % inhibition or IC50 value from a representative experiment. Variability for the functional assay was typically within 20%.

[2] = target: T2, human SGLT2 (Homo sapiens, UniProt P31639); assay: Cell-based assay for sodium-dependent glucose transport (14C-AMG uptake), CHOK-SGLT2; conditions: CHO-K1 cells stably expressing human SGLT2, Na-dependent 14C-AMG uptake; for inhibition at 10 µM: read-out: CHOK-SGLT2 % Inh. @10 μM
T2 construct: expressed in transfected cells; pcDNA vector)
T2 sequence (P31639 1-672): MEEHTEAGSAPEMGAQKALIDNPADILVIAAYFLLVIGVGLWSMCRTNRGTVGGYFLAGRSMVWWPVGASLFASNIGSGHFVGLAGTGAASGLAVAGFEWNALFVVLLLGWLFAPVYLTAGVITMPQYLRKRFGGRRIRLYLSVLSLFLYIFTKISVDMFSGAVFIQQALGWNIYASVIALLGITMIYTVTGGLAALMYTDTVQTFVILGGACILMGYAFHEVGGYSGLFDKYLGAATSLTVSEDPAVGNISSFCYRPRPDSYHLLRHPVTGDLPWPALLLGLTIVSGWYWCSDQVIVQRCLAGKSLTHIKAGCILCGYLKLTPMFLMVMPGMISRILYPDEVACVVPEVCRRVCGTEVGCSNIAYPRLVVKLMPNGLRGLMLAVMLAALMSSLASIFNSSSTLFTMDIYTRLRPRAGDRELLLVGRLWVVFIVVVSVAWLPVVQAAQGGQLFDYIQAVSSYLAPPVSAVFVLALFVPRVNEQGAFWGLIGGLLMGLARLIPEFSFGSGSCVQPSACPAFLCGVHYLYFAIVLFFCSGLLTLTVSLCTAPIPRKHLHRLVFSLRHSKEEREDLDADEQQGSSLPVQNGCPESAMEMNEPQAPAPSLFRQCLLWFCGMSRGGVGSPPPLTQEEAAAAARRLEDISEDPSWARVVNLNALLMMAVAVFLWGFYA
Method: as §1, §2, §3

SMILES | IC50 [1] [nM] | IC50 [2] [nM] | inhibition at 10 µM [1] [%] | inhibition at 10 µM [2] [%]
CCc1ccc(Cn2nnc3cccc(OC4OC(CO)C(O)C(O)C4O)c32)cc1 [Example 10, 2-[3-(4-Ethyl-benzyl)-3H-benzotriazol-4-yloxy]-β-D-glucopyranoside] | 590 | 8 | – | –
CCc1ccc(Cn2c(=O)[nH]c3cccc(OC4OC(CO)C(O)C(O)C4O)c32)cc1 [Example 3, 2[3-(4-Ethyl-benzyl)-1,3-dihydro-benzoimidazol-2-one-4-yloxy]-β-D-glucopyranoside] | – | 1020 | 1 | –
CCc1ccc(Cn2cnc3cc(C)cc(O[C@@H]4O[C@H](CO)[C@@H](O)[C@H](O)[C@H]4O)c32)cc1 [Example 8, 2-[3-(4-Ethyl-benzyl)-6-methyl-3H-benzoimidazol-4-yloxy]-β-D-glucopyranoside] | 1120 | 61 | – | –
OCC1OC(Oc2cccc3ncn(CCc4ccc5ccccc5c4)c23)C(O)C(O)C1O [Example 2, 2-[3-(2-naphthalen-2-yl-ethyl)-3H-benzoimidazol-4-yloxy]-β-D-glucopyranoside] | – | 334 | 55 | –
COc1ccc(CCn2c(=O)[nH]c3cccc(OC4OC(CO)C(O)C(O)C4O)c32)cc1 (stereo not drawn) [Example 6] | – | – | – | 18

Results, then the compound that gave them:

IC50 [1] [nM] | IC50 [2] [nM] | inhibition at 10 µM [1] [%] | inhibition at 10 µM [2] [%] | SMILES
1120 | 16 | – | – | CCc1ccc(Cn2cnc3cccc(OC4OC(CO)C(O)C(O)C4O)c32)cc1 [Example 4, 2-[3-(4-Ethyl-benzyl)-3H-benzoimidazol-4-yloxy]-β-D-glucopyranoside]
– | 390 | 40 | – | COc1ccc(CCn2nnc3cccc(OC4OC(CO)C(O)C(O)C4O)c32)cc1 [Example 9, 2-{3-[2-(4-methoxy-phenyl)-ethyl]-3H-benzotriazol-4-yloxy}-β-D-glucopyranoside]
700 | 38 | – | – | OCC1OC(Oc2cccc3ncn(CCc4ccc5c(c4)CCO5)c23)C(O)C(O)C1O (stereo not drawn) [Example 7, 2-{3-[2-(2,3-Dihydro-benzofuran-5-yl)-ethyl]-3H-benzoimidazol-4-yloxy}β-D glucopyranoside]
– | 365 | 61 | – | COc1ccc(CCn2cnc3cccc(OC4OC(CO)C(O)C(O)C4O)c32)cc1 [Example 5, 2-{3-[2-(4-Methoxyphenyl)-ethyl]-3H-benzoimidazol-4-yloxy}-β-D-glucopyranoside]
– | – | – | 31 | O=c1[nH]c2cccc(OC3OC(CO)C(O)C(O)C3O)c2n1CCc1ccc2ccccc2c1 [Example 1, 2-[3-(2-Naphthalen-2-yl-ethyl)-1,3-dihydro-benzoimidazol-2-one-4-yloxy]-β-D-glucopyranoside]
